Measurements from article PMC9533326 (Cancer discovery, 2021).
Read-outs that look alike come from different tables or passages of the source.

Tests used:
[1] = earlier trial of navitoclax in lymphoid malignancies; cited from earlier work
[2] = parameters: species or system human; conditions: in vivo; for Time post-dose at which Cmax was observed: human
[3] = for Dose reduction due to TEAEs: 2 patients each; for Discontinuation due to study drug related AEs: all patients; for Drug discontinued due to TEAEs: all patients (venetoclax 11, navitoclax 12 patients)
relapsed/refractory ALL = conditions: https://www.accessdata.fda.gov/drugsatfda_docs/label/2019/021877s010lbl.pdf; cited from earlier work

Compound | Time post-dose at which Cmax was observed [2] | Dose reduction due to TEAEs [3] | Discontinuation due to study drug related AEs [3] | Drug discontinued due to TEAEs [3] | Survival (median OS) reported in studies (relapsed/refractory ALL) | further results
CC1(C)CCC(c2ccc(Cl)cc2)=C(CN2CCN(c3ccc(C(=O)NS(=O)(=O)c4ccc(N[C@H](CCN5CCOCC5)CSc5ccccc5)c(S(=O)(=O)C(F)(F)F)c4)cc3)CC2)C1 [Navitoclax, navitoclax] | 4 to 8 h | 4.3% | 10.6% | 25.5% |  | Maximum tolerated dose [1]: 325 mg/day; Rate of grade 3/4 thrombocytopenia [1]: 52.7%; Impact on venetoclax pharmacokinetics [2]: no significant impact; Recommended phase II dose (RPTD) ([3]; patients weighing <45 kg, in combination with 400 mg adult-equivalent venetoclax): 25 mg; Recommended phase II dose (RPTD) ([3]; patients weighing ≥45 kg (adults), in combination with 400 mg venetoclax): 50 mg
CC1(C)CCC(CN2CCN(c3ccc(C(=O)NS(=O)(=O)c4ccc(NCC5CCOCC5)c([N+](=O)[O-])c4)c(Oc4cnc5[nH]ccc5c4)c3)CC2)=C(c2ccc(Cl)cc2)C1 [Venetoclax, venetoclax] | 6 to 8 h | 4.3% | 12.8% | 23.4% |  | Recommended phase II dose ([3]; adult-equivalent, with navitoclax 50 mg (adults) or 25 mg (<45 kg)): 400 mg; Events of laboratory TLS ([3]; quick ramp-up to 400 mg venetoclax): 2 events
COc1nc(N)nc2c1ncn2[C@@H]1O[C@H](CO)[C@@H](O)[C@@H]1O [nelarabine] |  |  |  |  | 4.7 months | 
blinatumomab: bispecific antibody |  |  |  |  | 7.7 months | 
inotuzumab ozogamicin |  |  |  |  | 7.7 months | 
